Patent publication US20100298141A1, “SUBSTITUTED PYRIDINE N-OXIDE HERBICIDES” (E. I. DU PONT DE NEMOURS AND COMPANY, priority 2007, published 2010)

What was measured:
Assay in all cases: Test F preemergence test
Conditions in all cases: scale 0 to 100
bermudagrass = assay type: in vivo, Cynodon dactylon
Outline: (§1)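 Test chemicals in a non-phytotoxic solvent mixture containing a surfactant were applied preemergence to sown seeds or postemergence to sugarcane plants. Treated plants and controls were held in a greenhouse for 14 to 21 days, then visually evaluated against controls.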

common mallow = assay type: in vivo, Malva sylvestris
Outline: as §1

Italian ryegrass = assay type: in vivo, Lolium multiflorum
Outline: as §1

Surinam grass = assay type: in vivo, Brachiaria decumbens
Outline: as §1

common ragweed = assay type: in vivo, Ambrosia elation
Outline: as §1

naked crabgrass = assay type: in vivo, Digitaria nuda
Outline: as §1

common chickweed = assay type: in vivo, Stellaria media
Outline: as §1

annual bluegrass = assay type: in vivo, Poa annua
Outline: as §1

common purslane = assay type: in vivo, Portulaca oleracea
Outline: as §1

large crabgrass = assay type: in vivo, Digitaria sanguinalis
Outline: as §1

prickly sida = assay type: in vivo, Sida spinosa
Outline: as §1

pitted morningglory = assay type: in vivo, Ipomoea lacunosa
Outline: as §1

southern sandbur = assay type: in vivo, Cenchrus echinatus
Outline: as §1

Canada horseweed = assay type: in vivo, Conyza canadensis
Outline: as §1

mustard = assay type: in vivo, Brassica nigra
Outline: as §1

guineagrass = assay type: in vivo, Panicum maximum
Outline: as §1

green foxtail = assay type: in vivo, Setaria viridis
Outline: as §1

barnyardgrass = assay type: in vivo, Echinochloa crus-galli
Outline: as §1

field bindweed = assay type: in vivo, Convolvulus arvensis
Outline: as §1

quackgrass = assay type: in vivo, Elytrigia repens
Outline: as §1

## Cc1cc[n+]([O-])c([S+]([O-])Cc2c(C(F)(F)F)nn(C)c2Cl)c1 (racemic) [Compound 20]
bermudagrass; 8 g ai/ha, preemergence
  Plant response rating, Bermudagrass: 15
bermudagrass; 62 g ai/ha, Preemergence
  Bermudagrass plant response rating: 50
bermudagrass; Preemergence, 16 g ai/ha
  Plant response rating, Bermudagrass: 20
bermudagrass; Preemergence, 31 g ai/ha
  Plant response rating, Bermudagrass: 50
Common mallow; 8 g ai/ha, preemergence
  Plant response rating, Mallow: 0
Common mallow; 62 g ai/ha, Preemergence
  Mallow plant response rating: 60
Common mallow; Preemergence, 16 g ai/ha
  Plant response rating, Mallow: 0
Common mallow; Preemergence, 31 g ai/ha
  Plant response rating, Mallow: 25
Italian ryegrass; 8 g ai/ha, preemergence
  Plant response rating, Ryegrass, Italian: 0
Italian ryegrass; 62 g ai/ha, Preemergence
  Ryegrass, Italian plant response rating: 65
Italian ryegrass; Preemergence, 16 g ai/ha
  Plant response rating, Ryegrass, Italian: 10
Italian ryegrass; Preemergence, 31 g ai/ha
  Plant response rating, Ryegrass, Italian: 35
Surinam grass; 8 g ai/ha, preemergence
  Plant response rating, Surinam Grass: 0
Surinam grass; 16 g ai/ha, preemergence
  Plant response rating, Surinam Grass: 0
Surinam grass; 62 g ai/ha, Preemergence
  Surinam Grass plant response rating: 65
Surinam grass; Preemergence, 31 g ai/ha
  Plant response rating, Surinam Grass: 60
Common ragweed; 8 g ai/ha, preemergence
  Plant response rating, Ragweed: 0
Common ragweed; 62 g ai/ha, Preemergence
  Ragweed plant response rating: 25
Common ragweed; Preemergence, 16 g ai/ha
  Plant response rating, Ragweed: 0
Common ragweed; Preemergence, 31 g ai/ha
  Plant response rating, Ragweed: 0
Naked crabgrass; 8 g ai/ha, preemergence
  Plant response rating, Crabgrass, Naked: 75
Naked crabgrass; 62 g ai/ha, Preemergence
  Crabgrass, Naked plant response rating: 95
Naked crabgrass; Preemergence, 16 g ai/ha
  Plant response rating, Crabgrass, Naked: 75
Naked crabgrass; Preemergence, 31 g ai/ha
  Plant response rating, Crabgrass, Naked: 80
Common chickweed; 8 g ai/ha, preemergence
  Plant response rating, Chickweed: 0
Common chickweed; 62 g ai/ha, Preemergence
  Chickweed plant response rating: 95
Common chickweed; Preemergence, 16 g ai/ha
  Plant response rating, Chickweed: 80
Common chickweed; Preemergence, 31 g ai/ha
  Plant response rating, Chickweed: 90
Annual bluegrass; 8 g ai/ha, preemergence
  Plant response rating, Bluegrass: 0
Annual bluegrass; 62 g ai/ha, Preemergence
  Bluegrass plant response rating: 40
Annual bluegrass; Preemergence, 16 g ai/ha
  Plant response rating, Bluegrass: 0
Annual bluegrass; Preemergence, 31 g ai/ha
  Plant response rating, Bluegrass: 0
Common purslane; 8 g ai/ha, preemergence
  Plant response rating, Purslane: 0
Common purslane; 62 g ai/ha, Preemergence
  Purslane plant response rating: 25
Common purslane; Preemergence, 16 g ai/ha
  Plant response rating, Purslane: 15
Common purslane; Preemergence, 31 g ai/ha
  Plant response rating, Purslane: 15
Large crabgrass; 8 g ai/ha, preemergence
  Plant response rating, Crabgrass, Large: 0
Large crabgrass; 62 g ai/ha, Preemergence
  Crabgrass, Large plant response rating: 80
Large crabgrass; Preemergence, 16 g ai/ha
  Plant response rating, Crabgrass, Large: 10
Large crabgrass; Preemergence, 31 g ai/ha
  Plant response rating, Crabgrass, Large: 70
Prickly sida; 8 g ai/ha, preemergence
  Plant response rating, Prickly Sida: 0
Prickly sida; 62 g ai/ha, Preemergence
  Prickly Sida plant response rating: 60
Prickly sida; Preemergence, 16 g ai/ha
  Plant response rating, Prickly Sida: 0
Prickly sida; Preemergence, 31 g ai/ha
  Plant response rating, Prickly Sida: 20
Pitted morningglory; 8 g ai/ha, preemergence
  Plant response rating, Morningglory: 0
Pitted morningglory; 62 g ai/ha, Preemergence
  Morningglory plant response rating: 40
Pitted morningglory; Preemergence, 16 g ai/ha
  Plant response rating, Morningglory: 0
Pitted morningglory; Preemergence, 31 g ai/ha
  Plant response rating, Morningglory: 15
Southern sandbur; 8 g ai/ha, preemergence
  Plant response rating, Sandbur: 0
Southern sandbur; 16 g ai/ha, preemergence
  Plant response rating, Sandbur: 0
Southern sandbur; 62 g ai/ha, Preemergence
  Sandbur plant response rating: 75
Southern sandbur; Preemergence, 31 g ai/ha
  Plant response rating, Sandbur: 60
Canada horseweed; 8 g ai/ha, preemergence
  Plant response rating, Horseweed: 0
Canada horseweed; 62 g ai/ha, Preemergence
  Horseweed plant response rating: 0
Canada horseweed; Preemergence, 16 g ai/ha
  Plant response rating, Horseweed: 0
Canada horseweed; Preemergence, 31 g ai/ha
  Plant response rating, Horseweed: 0
mustard; 8 g ai/ha, preemergence
  Plant response rating, Black Mustard: 0
mustard; 62 g ai/ha, Preemergence
  Black Mustard plant response rating: 90
mustard; Preemergence, 16 g ai/ha
  Plant response rating, Black Mustard: 50
mustard; Preemergence, 31 g ai/ha
  Plant response rating, Black Mustard: 60
guineagrass; 8 g ai/ha, preemergence
  Plant response rating, Guineagrass: 0
guineagrass; 62 g ai/ha, Preemergence
  Guineagrass plant response rating: 95
guineagrass; Preemergence, 16 g ai/ha
  Plant response rating, Guineagrass: 0
guineagrass; Preemergence, 31 g ai/ha
  Plant response rating, Guineagrass: 90
Green foxtail; 8 g ai/ha, preemergence
  Plant response rating, Foxtail, Green: 0
Green foxtail; 62 g ai/ha, Preemergence
  Foxtail, Green plant response rating: 75
Green foxtail; Preemergence, 16 g ai/ha
  Plant response rating, Foxtail, Green: 10
Green foxtail; Preemergence, 31 g ai/ha
  Plant response rating, Foxtail, Green: 40
barnyardgrass; 8 g ai/ha, preemergence
  Plant response rating, Barnyardgrass: 0
barnyardgrass; 62 g ai/ha, Preemergence
  Barnyardgrass plant response rating: 90
barnyardgrass; Preemergence, 16 g ai/ha
  Plant response rating, Barnyardgrass: 40
barnyardgrass; Preemergence, 31 g ai/ha
  Plant response rating, Barnyardgrass: 80
Field bindweed; 8 g ai/ha, preemergence
  Plant response rating, Field Bindweed: 0
Field bindweed; 62 g ai/ha, Preemergence
  Field Bindweed plant response rating: 15
Field bindweed; Preemergence, 16 g ai/ha
  Plant response rating, Field Bindweed: 0
Field bindweed; Preemergence, 31 g ai/ha
  Plant response rating, Field Bindweed: 0
quackgrass; 8 g ai/ha, preemergence
  Plant response rating, Quackgrass: 0
quackgrass; 62 g ai/ha, Preemergence
  Quackgrass plant response rating: 60
quackgrass; Preemergence, 16 g ai/ha
  Plant response rating, Quackgrass: 0
quackgrass; Preemergence, 31 g ai/ha
  Plant response rating, Quackgrass: 0
